Measurements reported in patent US7906512B2, “3,6-substituted imidazol[1,2-b]pyridazine analogs for treating allergic and inflammatory diseases” (Alcon, Inc., priority 2005, dated 2011).

Target: Syk (h) (Homo sapiens, UniProt P43405)
Test: Syk kinase inhibition assay (33P-ATP filter binding)
Assay type: biochemical
Conditions: not given
Experimental: In a final reaction volume of 25 μl, Syk (h) (5-10 mU) is incubated with 50 mM Tris pH 7.5, […], 0.1 mM Na3VO4, 0.1% β-mercaptoethanol, 0.1 mg/mL poly (Glu, Tyr) 4:1, 10 μM test agent, 10 mM MgAcetate and [γ-^33P-ATP] (specific activity approximately 500 cpm/pmol, concentration as required). The reaction is initiated by the addition of the MgATP mix. After incubation for 40 minutes at room temperature, the reaction is stopped by the addition of 5 μl of a 3% phosphoric acid solution. 10 μl of the reaction is then spotted onto a Filtermat A and washed three times for 5 minutes in 75 mM phosphoric acid and once in methanol prior to drying and scintillation counting. Percent inhibition was calculated using the following formula: % Control=((sample-mean no enzyme)/(mean plus enzyme−mean no enzyme))×100.

| Compound | inhibition at 10 µM [%] |
| --- | --- |
| CCCC/C=C/c1cnc2ccc(NCCN(C)C)nn12 | 27 |

Same assay, conditions: 10 μM test agent; 40 minutes at room temperature; substrate poly (Glu, Tyr) 4:1; read-out: % inhibition

| Compound | inhibition at 10 µM [%] |
| --- | --- |
| c1n[nH]cc1-c1cnc2ccc(NC3CCOCC3)nn12 | 42 |
| CCCNc1ccc2ncc(-c3cc(C)cs3)n2n1 | 38 |
| CCCNc1ccc2ncc(-c3ccsc3)n2n1 | 23 |

Continued, values first:

| inhibition at 10 µM [%] | Compound |
| --- | --- |
| 81 | COc1ccccc1-c1cnc2ccc(NCc3ccccn3)nn12 |
| 77 | COc1ccc(-c2cnc3ccc(NCc4ccccn4)nn23)cc1 |
| 33 | CN1CCN(c2ccc(CNc3ccc4ncc(-c5cccc(OC(F)(F)F)c5)n4n3)cc2)CC1 |
| 26 | c1csc(-c2cnc3ccc(NCC4CC4)nn23)c1 |
| 24 | COc1cc(CNc2ccc3ncc(-c4ccc(Oc5ccccc5)cc4)n3n2)cc(OC)c1OC |
